Results as given in US20100197591A1, “4-AMINO-7,8-DIHYDROPYRIDO[4,3-d]PYRIMIDIN-5(6H)-ONE DERIVATIVES” (pfizer Inc, priority 2009, published 2010).

biological target: T1, Human full-length diacylglycerol:acylCoA acyltransferase 1 (DGAT-1) (Homo sapiens, UniProt O75907); assay: DGAT-1 Reduced Microsome Multidose Assay, G7329F Human IC50; format: biochemical; conditions: crude membrane fraction of Sf9 cells expressing human DGAT-1; [14C]decanoylCoA; apparent IC50, average where tested more than once
T1 construct: Human full-length diacylglycerol:acylCoA acyltransferase 1 (DGAT-1) was expressed in Sf9 insect cells; made in house; host or cells: Sf9 insect cells (baculovirus); crude membrane/microsome fraction
T1 sequence (O75907 1-488): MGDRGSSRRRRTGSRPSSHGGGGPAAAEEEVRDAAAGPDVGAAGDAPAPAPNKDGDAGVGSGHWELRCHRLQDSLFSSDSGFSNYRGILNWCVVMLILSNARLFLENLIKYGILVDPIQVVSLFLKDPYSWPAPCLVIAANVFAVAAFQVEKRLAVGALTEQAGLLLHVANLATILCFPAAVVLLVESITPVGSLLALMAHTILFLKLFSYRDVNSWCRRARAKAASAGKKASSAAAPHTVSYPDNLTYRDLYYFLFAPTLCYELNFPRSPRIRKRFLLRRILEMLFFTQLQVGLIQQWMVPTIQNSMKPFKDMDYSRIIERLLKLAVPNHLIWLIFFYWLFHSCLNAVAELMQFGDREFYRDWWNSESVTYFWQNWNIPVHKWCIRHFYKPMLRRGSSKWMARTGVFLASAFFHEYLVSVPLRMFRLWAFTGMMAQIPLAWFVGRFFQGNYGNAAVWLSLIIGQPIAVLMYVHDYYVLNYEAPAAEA
Protocol: Human full-length diacylglycerol:acylCoA acyltransferase 1 (DGAT-1) was expressed in Sf9 insect cells which are then lysed and a crude membrane fraction (105,000×g pellet) was prepared. The DGAT-1 gene is a human DGAT-1 gene described in J Biol Chem 273:26765 (1998) and U.S. Pat. No. 6,100,077.
In vitro inhibition of DGAT-1 was measured using a modification, further described below, of the assay methodology described in U.S. Pat. No. 6,994,956 B2.
The cells were cultured as follows. Sf9 cells (20 L) were infected with 4 mL of DGAT-1 Baculovirus Infected Insect Cells (BIIC) for 72 hours in a Wave Bioreactor System 20/50P (Wave Biotec/GE Healthcare).
Crude DGAT-1 microsomes were prepared as follows. Cell pellets were washed once with ice-cold Dulbecco's phosphate-buffered saline. Cells were collected in tabletop centrifuge (Beckman GS-6KR), 15 minutes, 2000×g, 4° C. Twenty (20) mL of ice-cold Microsome Buffer (MB) was added per 5 g of cell pellet. The suspension was passed through a microfluidizer 3 times (18K psi). The lysate was transferred to centrifuge tubes and centrifuged for 20 minutes at 5000×g (Beckman-Coulter, Inc. Allegra® 64R High-Speed Refrigerated Benchtop Centrifuge, F0650 rotor) at 4° C. The supernatant was transferred to ultracentrifuge tubes and centrifuged at 125,000×g for 1 hour in a Beckman Ti-45 rotor, 4° C. The supernatant fluid was discarded. The pellet was resuspended in 70 mL of MB by sonication. The microsome concentration was determined using Bio-Rad Protein DC Protein Assay. The microsomes were filter sterilized with a 0.22 μm filter. The samples were portioned, flash frozen and stored at −80° C.
The Microsome Buffer, used for microsome preparation, was prepared by conventional means and contained 125 mM sucrose, 3 mM imidazole, 0.2 μg/mL aprotinin, 0.2 μg/mL leupeptin and 5 mM dithiothreitol (Cleland's reagent), DGAT-1 activity was measured in 384-well format in a total assay volume of 25 μl that contained, Hepes buffer (50 mM, pH 7.5), MgCl2 (10 mM), bovine serum albumin (0.6 mg/ml), [^14C]decanoylCoA (20 μM, 58 Ci/mol) and membranes (25 μg/ml) into which 1,2 dioleoyl-sn-glycerol (75 μM) in acetone has already been incorporated. Inhibitors in DMSO were pre-incubated with membranes before initiating the DGAT-1 reaction by the addition of decanoylCoA. […] The DMSO concentration was 2.5%. The inhibitors were present at a range of eight concentrations to generate an apparent IC50 for each compound. The eight inhibitor concentration employed ranged from 10 μM to 3 nM (from high to low concentration). Specifically, the eight concentrations used were 10 μM, 3 μM, 1 μM, 300 nM, 100 nM, 30 nM, 10 nM and 3 nM.
Reaction mixtures were neutralized by the addition of 15 μl of tris(hydroxy-methyl)aminomethane (1M, pH 8.0) and then mixed by trituration with 37.5 μl of Microscint™-E (Perkin Elmer). Plates contents were allowed to partition for 15 to 30 min before ^14C was measured in a scintillation spectrometer (Wallac Microbeta Trilux 1450-030 liquid scintillation counter 12 detector in the top-count DPM mode). Percent inhibition of test compounds was computed as […].
Four separate assays were performed using 4 different methods of analysis. The method of analysis of Assay 1 was the same as Assay 4 (described above) except microsomes were utilized at 25 μg/mL instead of 5 μg/mL. The method of analysis of Assay 2 was the same as Assay 4 (described above) except eleven (11) concentrations of inhibitor were employed instead of eight (8). The method of analysis of Assay 3 was the same as Assay 2 except the compounds were serially diluted in a different laboratory.
Where this DGAT-1 inhibition assay was performed on a compound more than once, an average is provided for that compound.

Row | SMILES | IC50 [nM]
1 | COc1nc(N)c2c(n1)CCN(c1ccc(OC(F)(F)F)cc1)C2=O [Example 1A, 4-amino-2-methoxy-6-[4-(trifluoromethoxy)phenyl]-7,8-dihydropyrido[4,3-d]pyrimidin-5(6H)-one] | 90.4
2 | CCc1ccc(N2CCc3nc(OC)nc(N)c3C2=O)cc1 [Example 1B, 4-amino-6-(4-ethylphenyl)-2-methoxy-7,8-dihydropyrido[4,3-d]pyrimidin-5(6H)-one] | 52.7
3 | COc1nc(N)c2c(n1)CCN(c1ccc(CC3CC3)cc1)C2=O [Example 1C, 4-amino-6-[4-(cyclopropylmethyl)phenyl]-2-methoxy-7,8-dihydropyrido[4,3-d]pyrimidin-5(6H)-one] | 11
4 | COc1nc(N)c2c(n1)CCN(c1ccc3c(c1)CCC3)C2=O [Example 1D, 4-amino-6-(2,3-dihydro-1H-inden-5-yl)-2-methoxy-7,8-dihydropyrido[4,3-d]pyrimidin-5(6H)-one] | 40.4
5 | COc1nc(N)c2c(n1)CCN(c1ccc(C3CC3)cc1)C2=O [Example 1E, 4-amino-6-(4-cyclopropylphenyl)-2-methoxy-7,8-dihydropyrido[4,3-d]pyrimidin-5(6H)-one] | 28.8
6 | COc1nc(N)c2c(n1)CCN(c1ccc(C(C)C)c(F)c1)C2=O [Example 1G, 4-amino-6-(3-fluoro-4-isopropylphenyl)-2-methoxy-7,8-dihydropyrido[4,3-d]pyrimidin-5(6H)-one] | 9.66
7 | COc1nc(N)c2c(n1)CCN(c1ccc(C3CC(F)(F)C3)cc1)C2=O [Example 1H, 4-amino-6-[4-(3,3-difluorocyclobutyl)phenyl]-2-methoxy-7,8-dihydropyrido[4,3-d]pyrimidin-5(6H)-one] | 57.6
8 | COc1nc(N)c2c(n1)CCN(c1ccc([C@H]3C[C@H](O)C3)cc1)C2=O [Example 1I, 4-amino-6-[4-(trans-3-hydroxycyclobutyl)phenyl]-2-methoxy-7,8-dihydropyrido[4,3-d]pyrimidin-5(6H)-one] | 95.8
9 | COc1nc(N)c2c(n1)CCN(c1ccc([C@H]3C[C@@H](O)C3)cc1)C2=O [Example 1J, 4-amino-6-[4-(cis-3-hydroxycyclobutyl)phenyl]-2-methoxy-7,8-dihydropyrido[4,3-d]pyrimidin-5(6H)-one] | 59.8
10 | COc1nc(N)c2c(n1)CCN(c1ccc(C3(CO)CCC3)cc1)C2=O [Example 1O, 4-amino-6-{4-[1-(hydroxymethyl)cyclobutyl]phenyl}-2-methoxy-7,8-dihydropyrido[4,3-d]pyrimidin-5(6H)-one] | 35.9
11 | COc1nc(N)c2c(n1)CCN(c1ccc(C3(C(=O)O)CCC3)cc1)C2=O [Example 1P, 1-[4-(4-amino-2-methoxy-5-oxo-7,8-dihydropyrido[4,3-d]pyrimidin-6(5H)-yl)phenyl]cyclobutanecarboxylic acid] | 67.1
12 | COc1nc(N)c2c(n1)CCN(c1ccc(C(C)(C)CO)cc1)C2=O [Example 1T, 4-amino-6-[4-(2-hydroxy-1,1-dimethylethyl)phenyl]-2-methoxy-7,8-dihydropyrido[4,3-d]pyrimidin-5(6H)-one] | 52.9
13 | COc1nc(N)c2c(n1)CCN(c1ccc(C(O)(C(F)(F)F)C(F)(F)F)cc1)C2=O [Example 1X, 4-amino-2-methoxy-6-{4-[2,2,2-trifluoro-1-hydroxy-1-(trifluoromethyl)ethyl]phenyl}-7,8-dihydropyrido[4,3-d]pyrimidin-5(6H)-one] | 5.19
14 | COc1nc(N)c2c(n1)CCN(c1ccc(C(O)C(F)(F)F)cc1)C2=O (stereo not shown) [Example 1Y, 4-amino-2-methoxy-6-[4-(2,2,2-trifluoro-1-hydroxyethyl)phenyl]-7,8-dihydropyrido[4,3-d]pyrimidin-5(6H)-one] | 46
15 | COc1nc(N)c2c(n1)CCN(c1ccc(CC(C)C)cc1)C2=O [Example 1Z, 4-amino-6-(4-isobutylphenyl)-2-methoxy-7,8-dihydropyrido[4,3-d]pyrimidin-5(6H)-one] | 4.92
16 | COC(=O)c1ccc(N2CCc3nc(OC)nc(N)c3C2=O)cc1 [Example 2A, Methyl 4-(4-amino-2-methoxy-5-oxo-7,8-dihydropyrido[4,3-d]pyrimidin-6(5H)-yl)benzoate] | 50.3
17 | COc1nc(N)c2c(n1)CCN(c1ccc(C(C)(C)O)cc1)C2=O [Example 2B, 4-amino-6-[4-(1-hydroxy-1-methylethyl)phenyl]-2-methoxy-7,8-dihydropyrido[4,3-d]pyrimidin-5(6H)-one] | 177
18 | COc1nc(N)c2c(n1)CCN(c1ccc(C(C)(C)F)cc1)C2=O [Example 2C, 4-amino-6-[4-(1-fluoro-1-methylethyl)phenyl]-2-methoxy-7,8-dihydropyrido[4,3-d]pyrimidin-5(6H)-one] | 86.6
19 | COc1nc(N)c2c(n1)CCN(c1ccc(C(C)(C)OC)cc1)C2=O [Example 2D, 4-amino-2-methoxy-6-[4-(1-methoxy-1-methylethyl)phenyl]-7,8-dihydropyrido[4,3-d]pyrimidin-5(6H)-one] | 34.6
20 | COc1nc(N)c2c(n1)CCN(c1ccc(C(=O)O)cc1)C2=O [Example 2E, 4-(4-amino-2-methoxy-5-oxo-7,8-dihydropyrido[4,3-d]pyrimidin-6(5H)-yl)benzoic acid] | 1480
21 | COc1nc(N)c2c(n1)CCN(c1ccc(C(=O)OC3CCCCC3)cc1)C2=O [Example 2G, Cyclohexyl 4-(4-amino-2-methoxy-5-oxo-7,8-dihydropyrido[4,3-d]pyrimidin-6(5H)-yl)benzoate] | 74.4
22 | COc1nc(N)c2c(n1)CCN(c1ccc(C(=O)N(C)C)cc1)C2=O [Example 2H, 4-(4-amino-2-methoxy-5-oxo-7,8-dihydropyrido[4,3-d]pyrimidin-6(5H)-yl)-N,N-dimethylbenzamide] | 1370
23 | COC(=O)C(C)(C)c1ccc(N2CCc3nc(OC)nc(N)c3C2=O)cc1 [Example 3A, methyl 2-[4-(4-amino-2-methoxy-5-oxo-7,8-dihydropyrido[4,3-d]pyrimidin-6(5H)-yl)phenyl]-2-methylpropanoate] | 13.7
24 | COc1nc(N)c2c(n1)CCN(c1ccc(C(C)(C)C(=O)O)cc1)C2=O [Example 3D, 2-[4-(4-amino-2-methoxy-5-oxo-7,8-dihydropyrido[4,3-d]pyrimidin-6(5H)-yl)phenyl]-2-methylpropanoic acid] | 46.2
25 | COc1nc(N)c2c(n1)CCN(c1ccc(C(C)(C)c3nc(C)no3)cc1)C2=O [Example 3F, 4-amino-2-methoxy-6-{4-[1-methyl-1-(3-methyl-1,2,4-oxadiazol-5-yl)ethyl]phenyl}-7,8-dihydropyrido[4,3-d]pyrimidin-5(6H)-one] | 51.5
